{"source": "patent US6737041B1", "about": "“Non-ozone depleting vapocoolants” (University of Cincinnati, priority 1993, dated 2004)", "key": {"[1]": {"tested_on": "skin (site on the subject's forearm)", "assay": "Study 1: minimum skin temperature after spraying coolant for 5 seconds from 12 inches", "type": "in vivo, human", "conditions": "spray time 5 seconds; for Minimum temperature for site A, MEAN ± STANDARD DEVIATION / Minimum temperature for site A: site A (forearm); for Minimum temperature for site A, MEAN ± STANDARD DEVIATION / Minimum temperature for site B, MEAN ± STANDARD DEVIATION: mean of 5 subjects, in °C (unit assumed); for Minimum temperature for site B, MEAN ± STANDARD DEVIATION / Minimum temperature for site B: site B (forearm, different from A)", "experimental": "Tables 1 and 5 describe the experimental conditions in accordance with the procedural steps described above. The only difference between Table 1 and Table 5 and between Study 1 and Study 2 is that in Study 1 the spray time was five seconds, whereas in Study 2 the spray time was 3 seconds. Comparison is made between various coolants including ethylchloride at room temperature, ethylchloride at 11° C., Fluorimethane® at room temperature, Fuorimethane® at 11° C. and mixtures of HFC 152a and HFC 134a.\n(§1) Tables 2 and 6 describe the subjects chosen including their normal skin temperature, the sex, race, age, weight and height of the subjects."}, "[2]": {"tested_on": "skin (site on the subject's forearm)", "assay": "Study 2: minimum skin temperature after spraying coolant for 3 seconds from 12 inches", "type": "in vivo, human", "conditions": "spray time 3 seconds; for Minimum temperature for site A, MEAN ± SD / Minimum temperature for site A: site A (forearm); for Minimum temperature for site A, MEAN ± SD / Minimum temperature for site B, MEAN ± SD: mean of 15 subjects, in °C (unit assumed); for Minimum temperature for site B, MEAN ± SD / Minimum temperature for site B: site B (forearm, different from A)", "text": "Tables 1 and 5 describe the experimental conditions in accordance with the procedural steps described above. The only difference between Table 1 and Table 5 and between Study 1 and Study 2 is that in Study 1 the spray time was five seconds, whereas in Study 2 the spray time was 3 seconds.\nas §1"}, "[3]": {"conditions": "subject 1, in °C (unit assumed)"}, "[4]": {"conditions": "subject 2, in °C (unit assumed)"}, "[5]": {"conditions": "subject 3, in °C (unit assumed)"}, "[6]": {"conditions": "subject 4, in °C (unit assumed)"}, "[7]": {"conditions": "subject 5, in °C (unit assumed)"}, "[8]": {"conditions": "subject code 1, in °C (unit assumed)"}, "[9]": {"conditions": "subject code 2, in °C (unit assumed)"}, "[10]": {"conditions": "subject code 3, in °C (unit assumed)"}, "[11]": {"conditions": "subject code 4, in °C (unit assumed)"}, "[12]": {"conditions": "subject code 5, in °C (unit assumed)"}, "[13]": {"conditions": "subject code 6, in °C (unit assumed)"}, "[14]": {"conditions": "subject code 7, in °C (unit assumed)"}, "[15]": {"conditions": "subject code 8, in °C (unit assumed)"}, "[16]": {"conditions": "subject code 9, in °C (unit assumed)"}, "[17]": {"conditions": "subject code 10, in °C (unit assumed)"}, "[18]": {"conditions": "subject code 11, in °C (unit assumed)"}, "[19]": {"conditions": "subject code 12, in °C (unit assumed)"}, "[20]": {"conditions": "subject code 13, in °C (unit assumed)"}, "[21]": {"conditions": "subject code 14, in °C (unit assumed)"}, "[22]": {"conditions": "subject code 15, in °C (unit assumed)"}}}
{"smiles": "CCCl", "note": "[EC, Ethyl chloride]", "values": [{"measurement": "Minimum temperature for site A, MEAN ± STANDARD DEVIATION", "setting": "[1]", "value": "−14.93 ± 2.45"}, {"measurement": "Minimum temperature for site A", "setting": "[1]; [3]", "value": "−13.22"}, {"measurement": "Minimum temperature for site A", "setting": "[1]; [4]", "value": "−16.87"}, {"measurement": "Minimum temperature for site A", "setting": "[1]; [5]", "value": "−17.56"}, {"measurement": "Minimum temperature for site A", "setting": "[1]; [6]", "value": "−11.72"}, {"measurement": "Minimum temperature for site A", "setting": "[1]; [7]", "value": "−15.26"}, {"measurement": "Minimum temperature for site B, MEAN ± STANDARD DEVIATION", "setting": "[1]", "value": "−16.40 ± 0.77"}, {"measurement": "Minimum temperature for site B", "setting": "[1]; [3]", "value": "−16.87"}, {"measurement": "Minimum temperature for site B", "setting": "[1]; [4]", "value": "−15.78"}, {"measurement": "Minimum temperature for site B", "setting": "[1]; [5]", "value": "−15.73"}, {"measurement": "Minimum temperature for site B", "setting": "[1]; [6]", "value": "−16.12"}, {"measurement": "Minimum temperature for site B", "setting": "[1]; [7]", "value": "−17.50"}, {"measurement": "Minimum temperature for site A, MEAN ± SD", "setting": "[2]", "value": "−15.70 ± 1.56"}, {"measurement": "Minimum temperature for site A", "setting": "[2]; [8]", "value": "−16.93"}, {"measurement": "Minimum temperature for site A", "setting": "[2]; [9]", "value": "−14.64"}, {"measurement": "Minimum temperature for site A", "setting": "[2]; [10]", "value": "−13.78"}, {"measurement": "Minimum temperature for site A", "setting": "[2]; [11]", "value": "−14.86"}, {"measurement": "Minimum temperature for site A", "setting": "[2]; [12]", "value": "−15.34"}, {"measurement": "Minimum temperature for site A", "setting": "[2]; [13]", "value": "−14.75"}, {"measurement": "Minimum temperature for site A", "setting": "[2]; [14]", "value": 16.70}, {"measurement": "Minimum temperature for site A", "setting": "[2]; [15]", "value": "−18.76"}, {"measurement": "Minimum temperature for site A", "setting": "[2]; [16]", "value": "−15.46"}, {"measurement": "Minimum temperature for site A", "setting": "[2]; [17]", "value": "−16.53"}, {"measurement": "Minimum temperature for site A", "setting": "[2]; [18]", "value": "−14.68"}, {"measurement": "Minimum temperature for site A", "setting": "[2]; [19]", "value": "−13.59"}, {"measurement": "Minimum temperature for site A", "setting": "[2]; [20]", "value": "−14.52"}, {"measurement": "Minimum temperature for site A", "setting": "[2]; [21]", "value": "−16.62"}, {"measurement": "Minimum temperature for site A", "setting": "[2]; [22]", "value": "−18.45"}, {"measurement": "Minimum temperature for site B, MEAN ± SD", "setting": "[2]", "value": "−15.92 ± 2.01"}, {"measurement": "Minimum temperature for site B", "setting": "[2]; [8]", "value": "−17.99"}, {"measurement": "Minimum temperature for site B", "setting": "[2]; [9]", "value": "−17.03"}, {"measurement": "Minimum temperature for site B", "setting": "[2]; [10]", "value": "−13.60"}, {"measurement": "Minimum temperature for site B", "setting": "[2]; [11]", "value": "−16.89"}, {"measurement": "Minimum temperature for site B", "setting": "[2]; [12]", "value": "−15.33"}, {"measurement": "Minimum temperature for site B", "setting": "[2]; [13]", "value": "−12.73"}, {"measurement": "Minimum temperature for site B", "setting": "[2]; [14]", "value": "−15.93"}, {"measurement": "Minimum temperature for site B", "setting": "[2]; [15]", "value": "−18.79"}, {"measurement": "Minimum temperature for site B", "setting": "[2]; [16]", "value": "−12.08"}, {"measurement": "Minimum temperature for site B", "setting": "[2]; [17]", "value": "−14.03"}, {"measurement": "Minimum temperature for site B", "setting": "[2]; [18]", "value": "−18.32"}, {"measurement": "Minimum temperature for site B", "setting": "[2]; [19]", "value": "−16.52"}, {"measurement": "Minimum temperature for site B", "setting": "[2]; [20]", "value": 16.48}, {"measurement": "Minimum temperature for site B", "setting": "[2]; [21]", "value": "−16.02"}, {"measurement": "Minimum temperature for site B", "setting": "[2]; [22]", "value": "−17.12"}]}
{"smiles": "CCCl", "note": "[ECC, Ethyl chloride]", "values": [{"measurement": "Minimum temperature for site A, MEAN ± STANDARD DEVIATION", "setting": "[1]", "value": "−15.59 ± 2.50"}, {"measurement": "Minimum temperature for site A", "setting": "[1]; [3]", "value": "−15.80"}, {"measurement": "Minimum temperature for site A", "setting": "[1]; [4]", "value": "−11.32"}, {"measurement": "Minimum temperature for site A", "setting": "[1]; [5]", "value": "−17.81"}, {"measurement": "Minimum temperature for site A", "setting": "[1]; [6]", "value": "−16.19"}, {"measurement": "Minimum temperature for site A", "setting": "[1]; [7]", "value": "−16.84"}, {"measurement": "Minimum temperature for site B, MEAN ± STANDARD DEVIATION", "setting": "[1]", "value": "−18.41 ± 1.92"}, {"measurement": "Minimum temperature for site B", "setting": "[1]; [3]", "value": "−19.22"}, {"measurement": "Minimum temperature for site B", "setting": "[1]; [4]", "value": "−15.56"}, {"measurement": "Minimum temperature for site B", "setting": "[1]; [5]", "value": "−18.71"}, {"measurement": "Minimum temperature for site B", "setting": "[1]; [6]", "value": "−17.80"}, {"measurement": "Minimum temperature for site B", "setting": "[1]; [7]", "value": "−20.75"}, {"measurement": "Minimum temperature for site A, MEAN ± SD", "setting": "[2]", "value": "−16.12 ± 2.13"}, {"measurement": "Minimum temperature for site A", "setting": "[2]; [8]", "value": "−17.89"}, {"measurement": "Minimum temperature for site A", "setting": "[2]; [9]", "value": "−17.54"}, {"measurement": "Minimum temperature for site A", "setting": "[2]; [10]", "value": "−14.82"}, {"measurement": "Minimum temperature for site A", "setting": "[2]; [11]", "value": "−13.46"}, {"measurement": "Minimum temperature for site A", "setting": "[2]; [12]", "value": "−17.04"}, {"measurement": "Minimum temperature for site A", "setting": "[2]; [13]", "value": "−17.18"}, {"measurement": "Minimum temperature for site A", "setting": "[2]; [14]", "value": "−13.22"}, {"measurement": "Minimum temperature for site A", "setting": "[2]; [15]", "value": "−13.10"}, {"measurement": "Minimum temperature for site A", "setting": "[2]; [16]", "value": "−18.11"}, {"measurement": "Minimum temperature for site A", "setting": "[2]; [17]", "value": "−17.63"}, {"measurement": "Minimum temperature for site A", "setting": "[2]; [18]", "value": "−15.56"}, {"measurement": "Minimum temperature for site A", "setting": "[2]; [19]", "value": "−17.00"}, {"measurement": "Minimum temperature for site A", "setting": "[2]; [20]", "value": "−13.13"}, {"measurement": "Minimum temperature for site A", "setting": "[2]; [21]", "value": "−16.26"}, {"measurement": "Minimum temperature for site A", "setting": "[2]; [22]", "value": "−19.80"}, {"measurement": "Minimum temperature for site B, MEAN ± SD", "setting": "[2]", "value": "−15.54 ± 3.33"}, {"measurement": "Minimum temperature for site B", "setting": "[2]; [8]", "value": "−12.79"}, {"measurement": "Minimum temperature for site B", "setting": "[2]; [9]", "value": "−17.73"}, {"measurement": "Minimum temperature for site B", "setting": "[2]; [10]", "value": "−11.70"}, {"measurement": "Minimum temperature for site B", "setting": "[2]; [11]", "value": "−16.21"}, {"measurement": "Minimum temperature for site B", "setting": "[2]; [12]", "value": "−15.84"}, {"measurement": "Minimum temperature for site B", "setting": "[2]; [13]", "value": "−15.32"}, {"measurement": "Minimum temperature for site B", "setting": "[2]; [14]", "value": "−10.04"}, {"measurement": "Minimum temperature for site B", "setting": "[2]; [15]", "value": "−20.86"}, {"measurement": "Minimum temperature for site B", "setting": "[2]; [16]", "value": "−16.69"}, {"measurement": "Minimum temperature for site B", "setting": "[2]; [17]", "value": "−18.07"}, {"measurement": "Minimum temperature for site B", "setting": "[2]; [18]", "value": "−18.65"}, {"measurement": "Minimum temperature for site B", "setting": "[2]; [19]", "value": "−10.58"}, {"measurement": "Minimum temperature for site B", "setting": "[2]; [20]", "value": "−12.08"}, {"measurement": "Minimum temperature for site B", "setting": "[2]; [21]", "value": "−17.86"}, {"measurement": "Minimum temperature for site B", "setting": "[2]; [22]", "value": "−18.69"}]}
